Test results taken from patent US6531476B1, “Piperazine derivatives inhibiting human immunodeficiency virus replication” (Universite Paris 7 - Denis Diderot, priority 1998, dated 2003).
Read-outs that look alike come from different tables or passages of the source.

Experiments:
HIV-1/Ba-L [1] = assay: Inhibition of HIV replication in monocyte-derived macrophages (reverse transcriptase activity in culture supernatants); type: cell-based; details: dose-effect curve FIG. 1
Text: a) Production and Culturing of the Macrophages
The macrophages were obtained by differentiation of monocytes which were themselves isolated from peripheral blood mononuclear cells.
To do this, the peripheral blood mononuclear cells were separated from the other elements of the blood by centrifugation on a ficoll gradient (MSL 2000, from Eurobio) and washed twice in RPMI 1640 medium (from Boehringer Mannheim). The monocytes were isolated from these mononuclear cells by counter-current elutriation. The fractions collected were analyzed using a cell counter-analyzer (from Coulter) and the cells corresponding to each fraction were phenotyped and then analyzed using a flow cytometer (FACS, from Becton Dickinson). The purity of the monocytes thus collected is at least equal to 95%.
These monocytes were then suspended in a culture medium (medium A below) comprising RPMI 1640 medium (from Boehringer Mannheim) supplemented with 10% fetal calf serum (from Boehringer Mannheim) decomplemented beforehand by treatment at 56° C. for 30 minutes, L-glutamine (2 mM) and a solution containing 100 μg/ml of 3 antibiotics: penicillin, streptomycin and neomycin (PSN, from Life Technologies), at a rate of 1 million monocytes per ml of culture medium. […]

HIV-1/Ba-L [2] = assay: Various procedures for treating monocyte-derived macrophages (before/after infection, maintained or not); type: cell-based; details: Human immunodeficiency virus 1, BAL, Macrophage, triplicate, read-out: percentage of inhibition (I) of the viral replication
Protocol: Various procedures for treating monocyte-derived macrophages with the piperazine derivatives in accordance with the invention were tested using a protocol similar to that described in Example 14.
In these tests, however, the macrophage cultures were divided into three groups:
a first group (group 1 below) in which the macrophages were treated with the piperazine derivatives 24 hours before being infected with HIV (i.e. on D3) and the treatment was maintained up to D28, as described in Example 14,
a second group (group 2 below) in which the macrophages were treated 24 hours after having been infected with HIV (i.e. on D5) and the treatment was maintained up to D28, and
a third group (group 3 below) in which the macrophages were treated 24 hours before being infected with HIV (i.e. on D3), but the treatment was not subsequently maintained.
In all cases, the piperazine derivatives were used at a dose of 100 μM and the tests were carried out in triplicate.

[3] = test system: monocyte-derived macrophages; assay: Cytotoxicity: neutral red viability test on monocyte-derived macrophage cultures; type: cell-based; details: 100 μM, FIG. 3
Protocol: The cytotoxicity of the piperazine derivatives in accordance with the invention was evaluated by measuring, by means of three different tests:
a test with neutral red, the viability of peripheral blood mononuclear cell cultures and of monocyte-derived macrophage cultures treated with the piperazine derivatives in accordance with the invention and by comparing the results obtained with those observed for “control” cultures, i.e. peripheral blood mononuclear cell cultures or monocyte-derived macrophage cultures prepared under the same conditions but in the absence of any treatment with said piperazine derivatives.
The neutral red test is also a test which is used on adherent cells and which was used to measure the effects of the piperazine derivatives in accordance with the invention on the monocyte-derived macrophages. […]
In all cases, the viability of the peripheral blood mononuclear cells and of the monocyte-derived macrophages was measured before culturing them, and then at each renewal of the culture media.

SMILES | melting point | doses at which inhibitory activity on HIV replication is shown (HIV-1/Ba-L [1]) | inhibition at 100 µM (HIV-1/Ba-L [2]; 24 h, Group 2: treated 24 hours after infection (D5), maintained up to D28, average ± standard deviation) | inhibition at 100 µM (HIV-1/Ba-L [2]; Group 1: treated 24 hours before infection (D3), maintained up to D28, average ± standard deviation) | inhibition at 100 µM (HIV-1/Ba-L [2]; Group 3: treated 24 hours before infection (D3), treatment not maintained, average ± standard deviation) | viability of monocyte-derived macrophage cultures versus control cultures (number of live cells) [3]
CCN(CC)C(=O)OCC1CN(C(=S)c2cc(OC)c(OC)c(OC)c2)CCN1C(=O)c1cc(OC)c(OC)c(OC)c1 (stereo not shown) | 105.8 °C |  |  |  |  | 
CCN(CC)C(=O)OCC1CN(C(=O)c2cc(OC)c(OC)c(OC)c2)CCN1C(=O)c1cc(OC)c(OC)c(OC)c1 (stereo not shown) [Example 2, 1,4-bis(3′,4′,5′-trimethoxybenzoyl)-2-(N,N-diethylaminocarbonyloxymethyl)piperazine] |  | above 1 μM | 88 ± 12% | 91 ± 2% | 73 ± 2% | no significant difference
CCN(CC)C(=O)OCC1CN(C(=O)c2cc(OC)c(OC)c(OC)c2)CCN1Cc1ccccc1.Cl (stereo not shown) [Example 8, 1-benzyl-4-(3′,4′,5′-trimethoxybenzoyl)-2-(N,N-diethylaminocarbonyloxymethyl)piperazine hydrochloride] | 134 °C |  |  |  |  | 
